According to patent US20260124222A1, “ISOTHIAZOLYLCARBOXAMIDE COMPOUNDS AND THEIR USE IN THERAPY” (HOTSPOT THERAPEUTICS, INC., priority 2022, published 2026):

The compounds below were run against T1, Avi-tagged FL MALT-1 (Homo sapiens, UniProt Q9UDY8) (assay: MALT-1 Fluorogenic Peptide Cleavage Assay (MALT1 inhibition assay)). Settings: Ac-LRSR-AMC peptide substrate; 30 min pre-incubation, 90 min reaction at room temperature; fluorescence.
T1 construct: Avi-tagged FL MALT-1 (Pharmaron, stored at −70° C.); Avi-tag; purchased Pharmaron
T1 sequence (Q9UDY8 1-824): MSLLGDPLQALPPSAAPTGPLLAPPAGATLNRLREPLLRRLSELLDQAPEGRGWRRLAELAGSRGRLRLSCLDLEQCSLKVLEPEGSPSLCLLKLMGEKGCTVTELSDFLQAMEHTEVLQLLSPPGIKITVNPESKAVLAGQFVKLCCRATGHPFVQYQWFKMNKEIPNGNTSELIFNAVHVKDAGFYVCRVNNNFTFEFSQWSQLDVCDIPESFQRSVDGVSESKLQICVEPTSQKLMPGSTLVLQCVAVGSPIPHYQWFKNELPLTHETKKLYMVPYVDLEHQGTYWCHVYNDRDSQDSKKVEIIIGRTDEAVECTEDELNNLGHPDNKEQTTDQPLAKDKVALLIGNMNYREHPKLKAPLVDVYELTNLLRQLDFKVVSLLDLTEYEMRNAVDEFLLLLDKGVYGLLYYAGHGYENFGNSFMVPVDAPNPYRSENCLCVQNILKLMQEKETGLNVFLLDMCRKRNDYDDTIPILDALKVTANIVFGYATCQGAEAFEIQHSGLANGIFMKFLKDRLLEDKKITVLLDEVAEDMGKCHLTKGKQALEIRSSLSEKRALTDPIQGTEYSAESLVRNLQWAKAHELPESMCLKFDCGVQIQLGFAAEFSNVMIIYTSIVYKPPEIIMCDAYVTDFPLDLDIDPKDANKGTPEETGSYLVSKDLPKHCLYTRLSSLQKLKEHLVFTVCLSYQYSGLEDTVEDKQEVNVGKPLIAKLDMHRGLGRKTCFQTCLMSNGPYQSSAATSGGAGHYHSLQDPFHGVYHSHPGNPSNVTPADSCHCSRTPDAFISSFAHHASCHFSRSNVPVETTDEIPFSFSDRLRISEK
Format: biochemical
How it was run: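 Full-length Avi-tagged enzyme preincubated 30 min at room temperature with compound (2% DMSO final) in HEPES pH 6.89 buffer with sodium citrate, TCEP, EDTA and CHAPS. Ac-LRSR-AMC substrate added at Km or 10×Km (working stocks 50 or […] μM); fluorescence (ex 342/em 441 nm) after 90 min; IC50 from sigmoidal fit.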

SMILES	IC50
CN(C)c1nsc(C(=O)Nc2ccnc(C(F)(F)F)c2)c1C1CC1 [I-125]	> 2.5 µM
Cn1nc2cccc(-c3nsc(C(=O)Nc4cnc(-n5nccn5)c(C#N)c4)c3C3CC3)c2n1 [I-126]	≤ 0.4 µM
Cn1nnc2c(-c3nsc(C(=O)Nc4cnc(-n5nccn5)c(C#N)c4)c3C3CC3)cccc21 [I-127]	≤ 0.4 µM
Cn1ccc(-c2nsc(C(=O)Nc3cnc(-n4nccn4)c(C#N)c3)c2C(F)(F)F)cc1=O [I-128, N-(5-cyano-6-(2H-1,2,3-triazol-2-yl)pyridin-3-yl)-3-(1-methyl-2-oxo-1,2-dihydropyridin-4-yl)-4-(trifluoromethyl)isothiazole-5-carboxamide]	> 2.5 µM
CC(=O)N1CC(c2nsc(C(=O)Nc3cnc(-n4nccn4)c(C#N)c3)c2C(F)(F)F)C1 [I-129, 3-(1-acetylazetidin-3-yl)-N-[5-cyano-6-(1,2,3-triazol-2-yl)pyridin-3-yl]-4-(trifluoromethyl)-1,2-thiazole-5-carboxamide]	> 2.5 µM
CN1CC(c2nsc(C(=O)Nc3cnc(-n4nccn4)c(C#N)c3)c2C(F)(F)F)C1 [I-130, N-[5-cyano-6-(1,2,3-triazol-2-yl)pyridin-3-yl]-3-(1-methylazetidin-3-yl)-4-(trifluoromethyl)-1,2-thiazole-5-carboxamide]	> 2.5 µM
N#Cc1cc(NC(=O)c2snc(-c3cccc4nccn34)c2C2CC2)cnc1-n1nccn1 [I-131, N-(5-cyano-6-(2H-1,2,3-triazol-2-yl)pyridin-3-yl)-4-cyclopropyl-3-(imidazo[1,2-a]pyridin-5-yl)isothiazole-5-carboxamide]	≤ 0.4 µM
O=C(Nc1ccnc(C(F)(F)F)c1)c1snc(-c2cccc3nccn23)c1C1CC1 [I-132, 4-cyclopropyl-3-(imidazo[1,2-a]pyridin-5-yl)-N-(2-(trifluoromethyl)pyridin-4-yl)isothiazole-5-carboxamide]	≤ 0.4 µM
O=C(Nc1ccc(C(=O)N2CC(O)C2)c(Cl)c1)c1snc(-c2cccc3ncccc23)c1C1CC1 [I-133, N-(3-chloro-4-(3-hydroxyazetidine-1-carbonyl)phenyl)-4-cyclopropyl-3-(quinolin-5-yl)isothiazole-5-carboxamide]	≤ 0.4 µM
CN1CC=C(c2nsc(C(=O)Nc3cnc(-n4nccn4)c(C#N)c3)c2C2CC2)CC1 [I-134, N-(5-cyano-6-(2H-1,2,3-triazol-2-yl)pyridin-3-yl)-4-cyclopropyl-3-(1-methyl-1,2,3,6-tetrahydropyridin-4-yl)isothiazole-5-carboxamide]	> 2.5 µM
O=C(Nc1ccnc(C(F)(F)F)c1)c1snc(-c2ccccc2Cl)c1C1CC1 [I-135, 3-(2-chlorophenyl)-4-cyclopropyl-N-[2-(trifluoromethyl)pyridin-4-yl]-1,2-thiazole-5-carboxamide]	≤ 0.4 µM
O=C(Nc1ccnc(C(F)(F)F)c1)c1snc(-c2ccc(Cl)cc2)c1C1CC1 [I-136, 3-(4-chlorophenyl)-4-cyclopropyl-N-[2-(trifluoromethyl)pyridin-4-yl]-1,2-thiazole-5-carboxamide]	≤ 0.4 µM
O=C(Nc1ccnc(C(F)(F)F)c1)c1snc(-c2ccc(C(F)(F)F)cc2)c1C1CC1 [I-137, 4-cyclopropyl-3-[4-(trifluoromethyl)phenyl]-N-[2-(trifluoromethyl)pyridin-4-yl]-1,2-thiazole-5-carboxamide]	0.4 to 1 µM
O=C(Nc1ccnc(C(F)(F)F)c1)c1snc(-c2cccc(C(F)(F)F)c2)c1C1CC1 [I-138, 4-cyclopropyl-3-(3-(trifluoromethyl)phenyl)-N-(2-(trifluoromethyl)pyridin-4-yl)isothiazole-5-carboxamide]	≤ 0.4 µM
O=C(Nc1ccnc(C(F)(F)F)c1)c1snc(-c2cccc(Cl)c2)c1C1CC1 [I-139, 3-(3-chlorophenyl)-4-cyclopropyl-N-(2-(trifluoromethyl)pyridin-4-yl)isothiazole-5-carboxamide]	≤ 0.4 µM
Cc1ccc(-c2nsc(C(=O)Nc3ccnc(C(F)(F)F)c3)c2C2CC2)c2cccnc12 [I-140, 4-cyclopropyl-3-(8-methylquinolin-5-yl)-N-[2-(trifluoromethyl)pyridin-4-yl]-1,2-thiazole-5-carboxamide]	≤ 0.4 µM
CC(=O)Nc1cccc(-c2nsc(C(=O)Nc3ccnc(C(F)(F)F)c3)c2C2CC2)c1 [I-141, 4-cyclopropyl-3-(3-acetamidophenyl)-N-[2-(trifluoromethyl)pyridin-4-yl]-1,2-thiazole-5-carboxamide]	0.4 to 1 µM
O=C(Nc1ccnc(C(F)(F)F)c1)c1snc(-c2ccc3scnc3c2)c1C1CC1 [I-142, 3-(1,3-benzothiazol-5-yl)-4-cyclopropyl-N-[2-(trifluoromethyl)pyridin-4-yl]-1,2-thiazole-5-carboxamide]	≤ 0.4 µM
Cc1nn(C)cc1-c1nsc(C(=O)Nc2ccnc(C(F)(F)F)c2)c1C1CC1 [I-143, 4-cyclopropyl-3-(1,3-dimethyl-1H-pyrazol-4-yl)-N-(2-(trifluoromethyl)pyridin-4-yl)isothiazole-5-carboxamide]	≤ 0.4 µM
O=C(Nc1ccnc(C(F)(F)F)c1)c1snc(-c2cncnc2)c1C1CC1 [I-144, 4-cyclopropyl-3-(pyrimidin-5-yl)-N-[2-(trifluoromethyl)pyridin-4-yl]-1,2-thiazole-5-carboxamide]	≤ 0.4 µM
CN(C)c1ccc(-c2nsc(C(=O)Nc3ccnc(C(F)(F)F)c3)c2C2CC2)cc1 [I-145, 4-cyclopropyl-3-[4-(dimethylamino)phenyl]-N-[2-(trifluoromethyl)pyridine-4-yl]-1,2-thiazole-5-carboxamide]	> 2.5 µM
O=C(Nc1ccnc(C(F)(F)F)c1)c1snc(-c2cncc(F)c2)c1C1CC1 [I-146, 4-cyclopropyl-3-(5-fluoropyridin-3-yl)-N-[2-(trifluoromethyl)pyridine-4-yl]-1,2-thiazole-5-carboxamide]	≤ 0.4 µM
O=C(Nc1ccnc(C(F)(F)F)c1)c1snc(-c2ccccc2F)c1C1CC1 [I-147, 4-cyclopropyl-3-(2-fluorophenyl)-N-[2-(trifluoromethyl)pyridine-4-yl]-1,2-thiazole-5-carboxamide]	≤ 0.4 µM
CC(=O)Nc1ccc(-c2nsc(C(=O)Nc3ccnc(C(F)(F)F)c3)c2C2CC2)cc1 [I-148, 3-(4-acetamidophenyl)-4-cyclopropyl-N-(2-(trifluoromethyl)pyridin-4-yl)isothiazole-5-carboxamide]	0.4 to 1 µM
Cn1ccc(-c2nsc(C(=O)Nc3ccnc(C(F)(F)F)c3)c2C2CC2)n1 [I-150, 4-cyclopropyl-3-(1-methyl-1H-pyrazol-3-yl)-N-(2-(trifluoromethyl)pyridin-4-yl)isothiazole-5-carboxamide]	1 to 2.5 µM
O=C(Nc1ccnc(C(F)(F)F)c1)c1snc(-c2ccn3ncnc3c2)c1C1CC1 [I-151, 3-([1,2,4]triazolo[1,5-a]pyridin-7-yl)-4-cyclopropyl-N-(2-(trifluoromethyl)pyridin-4-yl)isothiazole-5-carboxamide]	0.4 to 1 µM
Cn1ncc2c(-c3nsc(C(=O)Nc4ccnc(C(F)(F)F)c4)c3C3CC3)cccc21 [I-152, 4-cyclopropyl-3-(1-methyl-1H-indazol-4-yl)-N-(2-(trifluoromethyl)pyridin-4-yl)isothiazole-5-carboxamide]	≤ 0.4 µM
O=C(Nc1ccnc(C(F)(F)F)c1)c1snc(-c2ccc3ncsc3c2)c1C1CC1 [I-153, 3-(1,3-benzothiazol-6-yl)-4-cyclopropyl-N-[2-(trifluoromethyl)pyridin-4-yl]-1,2-thiazole-5-carboxamide]	≤ 0.4 µM
